In ChEMBL document CHEMBL1909046, “DrugMatrix in vitro pharmacology data”:

Assays:
D(3) dopamine receptor = D(3) dopamine receptor (Homo sapiens, UniProt P35462); assay: DRUGMATRIX: Dopamine D3 radioligand binding (ligand: [3H] Spiperone); format: cell membranes, CHO, Membrane; conditions: cho
[1] = target: Epidermal growth factor receptor (Homo sapiens, UniProt P00533); assay: DRUGMATRIX: Protein Tyrosine Kinase, EGF Receptor enzyme inhibition (substrate: Poly(Glu:Tyr)); format: cell-based, Insect cells; conditions: Not Active = under 50% inhibition at 10 µM
Epidermal growth factor receptor, sequence (P00533 whole entry): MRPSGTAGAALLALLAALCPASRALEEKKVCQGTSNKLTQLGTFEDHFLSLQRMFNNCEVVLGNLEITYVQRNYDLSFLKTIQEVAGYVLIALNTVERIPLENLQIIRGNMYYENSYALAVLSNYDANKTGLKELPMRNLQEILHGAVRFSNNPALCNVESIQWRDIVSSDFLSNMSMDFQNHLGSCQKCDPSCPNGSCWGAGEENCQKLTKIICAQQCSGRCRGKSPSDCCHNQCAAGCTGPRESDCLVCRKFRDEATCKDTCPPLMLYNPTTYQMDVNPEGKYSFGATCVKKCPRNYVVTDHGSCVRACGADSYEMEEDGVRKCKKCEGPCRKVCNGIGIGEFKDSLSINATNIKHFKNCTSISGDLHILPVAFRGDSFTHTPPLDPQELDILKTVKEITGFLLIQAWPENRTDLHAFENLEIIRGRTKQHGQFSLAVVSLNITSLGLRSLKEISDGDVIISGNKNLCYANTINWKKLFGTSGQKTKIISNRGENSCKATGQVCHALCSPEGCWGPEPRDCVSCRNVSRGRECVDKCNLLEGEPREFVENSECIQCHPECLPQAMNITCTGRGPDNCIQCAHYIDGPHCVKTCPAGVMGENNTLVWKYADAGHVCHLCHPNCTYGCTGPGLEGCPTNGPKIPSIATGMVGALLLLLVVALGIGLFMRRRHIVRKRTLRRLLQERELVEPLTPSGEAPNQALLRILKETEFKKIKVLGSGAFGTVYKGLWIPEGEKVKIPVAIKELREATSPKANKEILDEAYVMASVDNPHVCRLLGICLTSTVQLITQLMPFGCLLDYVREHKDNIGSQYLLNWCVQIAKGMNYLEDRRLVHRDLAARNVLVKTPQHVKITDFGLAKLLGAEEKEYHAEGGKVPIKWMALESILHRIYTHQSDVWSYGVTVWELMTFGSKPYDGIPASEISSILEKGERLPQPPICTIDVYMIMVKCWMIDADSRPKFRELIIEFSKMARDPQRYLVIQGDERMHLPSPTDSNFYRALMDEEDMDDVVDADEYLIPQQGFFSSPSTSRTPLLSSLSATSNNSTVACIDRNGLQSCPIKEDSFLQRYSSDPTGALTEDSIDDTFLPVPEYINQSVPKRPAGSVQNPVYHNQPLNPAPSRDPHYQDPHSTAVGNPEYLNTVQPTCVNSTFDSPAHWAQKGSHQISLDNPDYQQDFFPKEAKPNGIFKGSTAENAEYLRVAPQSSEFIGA

Caspase-1 = target: T1, Caspase-1 (Homo sapiens, UniProt P29466); set-up: species or system Escherichia coli;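 note: Caspase-1 enzyme inhibition assay with a peptide substrate; in other assays of this panel Not Active means under 50% inhibition at 10 µM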
T1 sequence (P29466 whole entry): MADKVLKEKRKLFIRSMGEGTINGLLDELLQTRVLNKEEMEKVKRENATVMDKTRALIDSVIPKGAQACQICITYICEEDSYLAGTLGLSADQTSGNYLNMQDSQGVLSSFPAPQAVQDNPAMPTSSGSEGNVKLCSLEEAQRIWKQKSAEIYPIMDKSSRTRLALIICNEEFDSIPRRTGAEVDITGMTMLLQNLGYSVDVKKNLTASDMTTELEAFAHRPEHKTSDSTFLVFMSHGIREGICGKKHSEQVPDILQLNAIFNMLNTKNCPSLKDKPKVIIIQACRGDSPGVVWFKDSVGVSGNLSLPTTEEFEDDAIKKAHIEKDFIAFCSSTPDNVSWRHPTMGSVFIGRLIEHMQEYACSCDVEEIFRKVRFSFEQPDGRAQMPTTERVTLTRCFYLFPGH

[2] = DRUGMATRIX: GABAA, Muscimol, Central radioligand binding (ligand: [3H] Muscimol); format: cell membranes, Rattus norvegicus, Wistar, Brain, Membrane; conditions: Not Active = under 50% inhibition at 10 µM
[3] = DRUGMATRIX: Glutamate, AMPA radioligand binding (ligand: [3H] AMPA); format: cell membranes, Rattus norvegicus, Wistar, Cerebral cortex, Membrane; conditions: Not Active = under 50% inhibition at 10 µM
[4] = target: Protein phosphatase 3 catalytic subunit alpha (Homo sapiens, UniProt Q08209); set-up: species or system Escherichia coli;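 note: inhibition of calcineurin (PP2B) enzyme activity, measured with DiFMUP as the substrate; in other assays of this panel Not Active means under 50% inhibition at 10 µM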
Vasopressin V1a receptor = Vasopressin V1a receptor (Homo sapiens, UniProt P37288); format: cell membranes, Membrane; conditions: hek293; note: in other assays of this panel Not Active means under 50% inhibition at 10 µM
Vasopressin V1a receptor, sequence (P37288 whole entry): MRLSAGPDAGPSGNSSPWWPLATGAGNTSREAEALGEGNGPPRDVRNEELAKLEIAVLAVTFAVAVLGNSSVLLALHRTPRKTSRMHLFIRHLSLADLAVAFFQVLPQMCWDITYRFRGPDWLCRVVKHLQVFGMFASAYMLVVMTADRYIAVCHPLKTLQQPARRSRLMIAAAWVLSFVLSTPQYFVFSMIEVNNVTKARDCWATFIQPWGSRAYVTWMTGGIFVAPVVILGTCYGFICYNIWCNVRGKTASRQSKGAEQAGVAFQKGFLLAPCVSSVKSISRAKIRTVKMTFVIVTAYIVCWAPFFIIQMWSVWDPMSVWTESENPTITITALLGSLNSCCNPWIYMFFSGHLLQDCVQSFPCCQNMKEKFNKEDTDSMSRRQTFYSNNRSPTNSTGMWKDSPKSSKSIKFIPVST

D(3) dopamine receptor, sequence (P35462 whole entry): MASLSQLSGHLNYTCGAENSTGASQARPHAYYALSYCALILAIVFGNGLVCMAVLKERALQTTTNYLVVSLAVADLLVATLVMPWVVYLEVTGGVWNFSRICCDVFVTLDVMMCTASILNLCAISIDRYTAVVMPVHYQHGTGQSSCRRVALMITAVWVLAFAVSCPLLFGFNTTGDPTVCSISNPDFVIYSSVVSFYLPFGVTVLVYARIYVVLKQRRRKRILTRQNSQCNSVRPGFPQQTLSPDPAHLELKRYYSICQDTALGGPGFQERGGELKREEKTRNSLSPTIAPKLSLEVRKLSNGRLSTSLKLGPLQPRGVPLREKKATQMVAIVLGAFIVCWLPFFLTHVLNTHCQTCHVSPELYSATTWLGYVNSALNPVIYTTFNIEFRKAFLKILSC

CC1(C)O[C@@H]2C[C@H]3[C@@H]4CCC5=CC(=O)CC[C@]5(C)[C@@]4(F)[C@@H](O)C[C@]3(C)[C@]2(C(=O)CCl)O1 [HALCINONIDE]
IC50 (D(3) dopamine receptor): Not Active | IC50 ([1]; insect cells): Not Active | IC50 (Caspase-1): Not Active | IC50 [2]: Not Active | Ki [2]: Not Active | IC50 [3]: Not Active | Ki [3]: Not Active | IC50 [4]: Not Active | IC50 (Vasopressin V1a receptor): Not Active

O=c1[nH]c(=O)n([C@H]2C[C@H](O)[C@@H](CO)O2)cc1I [IDOXURIDINE]
IC50 (D(3) dopamine receptor): Not Active | IC50 ([1]; insect cells): Not Active | IC50 (Caspase-1): Not Active | IC50 [2]: Not Active | Ki [2]: Not Active | IC50 [3]: Not Active | Ki [3]: Not Active | IC50 [4]: Not Active | IC50 (Vasopressin V1a receptor): Not Active

CC1Cc2ccccc2N1NC(=O)c1ccc(Cl)c(S(N)(=O)=O)c1 (configuration not stated) [INDAPAMIDE]
IC50 (D(3) dopamine receptor): Not Active | IC50 ([1]; insect cells): Not Active | IC50 (Caspase-1): Not Active | IC50 [2]: Not Active | Ki [2]: Not Active | IC50 [3]: Not Active | Ki [3]: Not Active | IC50 [4]: Not Active | IC50 (Vasopressin V1a receptor): Not Active

Nc1nc(N)nc(-c2cc(Cl)ccc2Cl)n1.O=C(O)/C=C\C(=O)O [IRSOGLADINE MALEATE]
IC50 (D(3) dopamine receptor): Not Active | IC50 ([1]; insect cells): Not Active | IC50 (Caspase-1): Not Active | IC50 [2]: Not Active | Ki [2]: Not Active | IC50 [3]: Not Active | Ki [3]: Not Active | IC50 [4]: Not Active | IC50 (Vasopressin V1a receptor): Not Active

CCC(C)n1ncn(-c2ccc(N3CCN(c4ccc(OCC5COC(Cn6cncn6)(c6ccc(Cl)cc6Cl)O5)cc4)CC3)cc2)c1=O (configuration not stated) [ITRACONAZOLE]
IC50 (D(3) dopamine receptor): Not Active | IC50 ([1]; insect cells): Not Active | IC50 (Caspase-1): Not Active | IC50 [2]: Not Active | Ki [2]: Not Active | IC50 [3]: Not Active | Ki [3]: Not Active | IC50 [4]: Not Active | IC50 (Vasopressin V1a receptor): Not Active

CCCCN1CCCC[C@H]1C(=O)Nc1c(C)cccc1C [LEVOBUPIVACAINE]
IC50 (D(3) dopamine receptor): Not Active | IC50 ([1]; insect cells): Not Active | IC50 (Caspase-1): Not Active | IC50 [2]: Not Active | Ki [2]: Not Active | IC50 [3]: Not Active | Ki [3]: Not Active | IC50 [4]: Not Active | IC50 (Vasopressin V1a receptor): Not Active

CCCCc1nc(Cl)c(CO)n1Cc1ccc(-c2ccccc2-c2nnn[nH]2)cc1 [LOSARTAN]
IC50 (D(3) dopamine receptor): Not Active | IC50 ([1]; insect cells): Not Active | IC50 (Caspase-1): Not Active | IC50 [2]: Not Active | Ki [2]: Not Active | IC50 [3]: Not Active | Ki [3]: Not Active | IC50 [4]: Not Active | IC50 (Vasopressin V1a receptor): Not Active

Sc1ncnc2nc[nH]c12 [MERCAPTOPURINE ANHYDROUS]
IC50 (D(3) dopamine receptor): Not Active | IC50 ([1]; insect cells): Not Active | IC50 (Caspase-1): Not Active | IC50 [2]: Not Active | Ki [2]: Not Active | IC50 [3]: Not Active | Ki [3]: Not Active | IC50 [4]: Not Active | IC50 (Vasopressin V1a receptor): Not Active

C[C@](N)(Cc1ccc(O)c(O)c1)C(=O)O [METHYLDOPA]
IC50 (D(3) dopamine receptor): Not Active | IC50 ([1]; read-out: IC50): 5.23 µM | IC50 (Caspase-1): Not Active | IC50 [2]: Not Active | Ki [2]: Not Active | IC50 [3]: Not Active | Ki [3]: Not Active | IC50 [4]: Not Active | IC50 (Vasopressin V1a receptor): Not Active

C[C@]12CCC(=O)C=C1CC[C@@H]1[C@@H]2CC[C@@]2(C)[C@H]1CC[C@]2(C)O [METHYLTESTOSTERONE]
IC50 (D(3) dopamine receptor): Not Active | IC50 ([1]; insect cells): Not Active | IC50 (Caspase-1): Not Active | IC50 [2]: Not Active | Ki [2]: Not Active | IC50 [3]: Not Active | Ki [3]: Not Active | IC50 [4]: Not Active | IC50 (Vasopressin V1a receptor): Not Active

Cc1ccccc1N1C(=O)c2cc(S(N)(=O)=O)c(Cl)cc2NC1C (configuration not stated) [METOLAZONE]
IC50 (D(3) dopamine receptor): Not Active | IC50 ([1]; insect cells): Not Active | IC50 (Caspase-1): Not Active | IC50 [2]: Not Active | Ki [2]: Not Active | IC50 [3]: Not Active | Ki [3]: Not Active | IC50 [4]: Not Active | IC50 (Vasopressin V1a receptor): Not Active

COCCc1ccc(OCC(O)CNC(C)C)cc1 (configuration not stated) [METOPROLOL]
IC50 (D(3) dopamine receptor): Not Active | IC50 ([1]; insect cells): Not Active | IC50 (Caspase-1): Not Active | IC50 [2]: Not Active | Ki [2]: Not Active | IC50 [3]: Not Active | Ki [3]: Not Active | IC50 [4]: Not Active | IC50 (Vasopressin V1a receptor): Not Active

CCn1cc(C(=O)O)c(=O)c2cc(F)c(N3CCNCC3)cc21 [NORFLOXACIN]
IC50 (D(3) dopamine receptor): Not Active | IC50 ([1]; insect cells): Not Active | IC50 (Caspase-1): Not Active | IC50 [2]: Not Active | Ki [2]: Not Active | IC50 [3]: Not Active | Ki [3]: Not Active | IC50 [4]: Not Active | IC50 (Vasopressin V1a receptor): Not Active
